Data from patent US4851450A, “Compounds for inhibition of platelet activating factor activity” (priority 1987, dated 1989).
Like-named read-outs stand apart in the source and are kept apart here.

Legend:
[1] = test system: Tetrahymena pyriformis cells; assay: Glycogenolysis in intact Tetrahymena pyriformis cells; type: cell-based; settings: glucose measured, FIG. 3
Experimental: The results were obtained using the following procedure: Tetrahymena pyriformis cells, in log phase, are spun down, washed with saline and resuspended in Tyrodes solution. After 30 min of incubation, the compounds III and IV in bovine serum albumin solution are added and aliquots taken at different time intervals. The aliquots are treated for 2 min in boiled water, sonicated and glucose measured by the method of Bergmeyer et al. (Methods of Enzymatic Analysis, 3, 1196 (Academic Press, N.Y. 1974), the teachings of which are incorporated herein.

rats = assay: Systolic blood pressure in rats (procedure of Tselepis et al.); type: in vivo, rat
Excerpt: Biochem. Physiol. 87C(1),41-46 (1987), the teachings of which are incorporated herein.

rabbit platelets = assay: [3H]Serotonin secretion by platelets; type: cell-based; settings: Oryctolagus cuniculus, Platelet; 2 min; final concentrations; read-out: 50% secretion of 3H-serotonin at 2 min
Experimental: The procedure is as follows: PAF and the various test lipid compounds are assessed for platelet stimulatory activity as briefly described. Rabbit platelets, internally labeled with [^3 H]serotonin (New England Nuclear; 28.2 Ci/mmol) are washed on Ficoll-Paque cushions and adjusted to 2.5×10^8 platelets/ml of Tyrode's buffer, pH 7.2. Appropriate dilutions of PAF or the test lipids are prepared in pyrogen-free 0.15M NaCl containing 2.5 mg/ml of crystallized bovine serum albumin; the albumin is required for dispersion of PAF and the test lipids. Four microliters of the various dilutions of PAF and test lipids are added to 200 μl of prewarmed (37° C.) [^3 H]serotonin-labeled platelets in plastic test tubes and the reaction mixture was incubated for 60 s at which time 20 μl of cold 1.5 m formaldehyde were added to stop the reactions. The tubes were immediately cooled to 0° C., centrifuged at 2200×g for 10 min and the supernatants were assayed for percentage of [^3 H]serotonin secretion relative to 100% controls prepared by the addition of Triton X-100 to 200 μl of the starting platelet suspension. The data were plotted linearly and 1 unit of activity was defined as the amount of PAF or test lipids required to effect 50% serotonin release. […]

[2] = test system: PAF aggregation of washed rabbit platelets; assay: Inhibition of PAF (AGEPC) activity / disaggregation during AGEPC-induced aggregation of washed rabbit platelets; type: cell-based; settings: for IC50: Oryctolagus cuniculus, Platelet
washed rabbit platelets = assay: Aggregation of washed rabbit platelets (procedure of Demopoulos et al.); type: cell-based; settings: for EC50: Oryctolagus cuniculus, Platelet, final concentrations; for cytotoxicity of the aggregation: washed rabbit platelets
[3] = Table, final molar concentration, for 2 × 10^-10 M AGEPC, read-out: IC50
[4] = against 2×10^-10 M PAF, final concentrations, read-out: IC50 for 2×10^-10 M PAF

Molecule	glycogenolysis [1]	fall in systolic blood pressure (SBP) (rats)	EC50 (rabbit platelets)	IC50 [2, 3]	IC50 [2, 4]	EC50 (washed rabbit platelets)	cytotoxicity of the aggregation (washed rabbit platelets)	effect on aggregation when added during AGEPC-induced aggregation ([2]; added during AGEPC (PAF)-induced aggregation, FIG. 4)
1-O-alkyl-2-acetyl-sn-glyceryl-3-phosphorylcholine [PAF]	dramatic influence on glycogenolysis	fall in the systolic blood pressure	–	–	–	–	–	–
CCCCCCCCC(O)C(O)CCCCCCCCOCC(O)CO (stereo not shown) [Compound III, 9,10-Dihydroxy-Octadecyl Glycerol]	–	–	2 µM	16 µM	16 µM	0.2 µM	non-cytotoxic	–
CCCCCCCCC(OC(C)=O)C(CCCCCCCCOCC(COC(C)=O)OC(C)=O)OC(C)=O (stereo not shown) [Compound IV, Tetra-Acetyl-9,10-Dihydroxy-Octadecyl Glycerol]	–	–	9 µM	28 µM	28 µM	2 µM	non-cytotoxic	–
thrombin	–	–	–	–	–	–	–	no effect on platelet aggregation
